Earlier results as cited in patent publication US10265413B2, “High molecular weight biodegradable gelatin-doxorubicin conjugate” (priority 2014, dated 2019).

Settings: cumulative doses

COc1cccc2c1C(=O)c1c(O)c3c(c(O)c1C2=O)C[C@@](O)(C(=O)CO)C[C@@H]3O[C@H]1C[C@H](N)[C@H](O)[C@H](C)O1 [DOX, (7S,9S)-7-[(2R,4S,5S,6S)-4-amino-5-hydroxy-6-methyloxan-2-yl]oxy-6,9,11-trihydroxy-9-(2-hydroxyacetyl)-4-methoxy-8,10-dihydro-7H-tetracene-5,12-dione]
cumulative dose above which irreversible cardiomyopathy occurs: > 550 mg/m^2
